# Assay results: PMC8541353, “A Novel Phenylpyrrolidine Derivative: Synthesis and Effect on Cognitive Functions in Rats with Experimental Ishemic Stroke” (Molecules, 2021)
# “And” between values parts separate entries of the source, which are not always exact repeats. Equal values may be shown once. Read-outs that look alike come from different tables or passages of the source.
# Legend:
# [1] = test system: newborn rat cortical neurons; test: Glutamate-induced excitotoxicity in newborn rat cortical neuron culture, MTT cell viability; format: cell-based, Wistar rats
# From the text: To confirm the predicted biological activity, we adopted a glutamate-induced excitotoxicity in the rat cortical neurons model. This work was based on previous findings that glutamate is a well-known excitatory CNS neurotransmitter, which contributes to normal neural transmission, development, differentiation, and plasticity. However, excessive extracellular glutamate levels cause uncontrolled continuous neuron depolarization, which can lead to neuronal death. Excitotoxicity is associated with several neurodegenerative conditions, including Huntington’s disease, Alzheimer’s disease, amyotrophic lateral sclerosis, Parkinson’s disease, and stroke/traumatic brain injury. To see whether compound 1 has neuroprotective effects, we studied the influence of compound 1 in glutamate-treated cortical neurons isolated from newborn Wistar rats (0–1 day).
# The primary culture of newborn rat cortical neurons was obtained as previously described. Briefly, cortical neurons were collected from newborn Wistar rats and inoculated onto culture plates (4 × 10^5 cell cm^–2). […]
# The cell viability was measured according to the cell ability of tetrazolium dye reduction. […] The formazan absorption at 492 nm was measured using a Zenyth 1100 (Anthos Labtec Instruments, GmbH, Salzburg, Austria) microplate reader.
# [2] = Concentration of compound 1 in plasma, striatum and cortex by HPLC-MS (intact and MCAO rats); format: in vivo; details: for concentration at 60 min: rat
# Description: The calculated data are consistent with the experimental data in intact animals. The concentration of compound 1 was determined in the striatum and frontal cortex by HPLC MS. Sixty minutes after the intravenous administration of compound 1, we anesthetized the rats with isoflurane. Afterward, we drained the blood from the heart, opened the chest, dissected the heart muscle, incised the left atrial appendage, and inserted an 18G needle into the right atrium. The pulmonary circulation was washed with 350 mL of 0.9% NaCl containing 1.0 mL of heparin. After the washing procedure, the rat was decapitated and the brain was removed and dissected. We determined the concentrations of compound 1 using an HPLC MS system. The concentration of compound 1 in plasma and the striatum differed by 650 times, and the concentration in plasma and the cortex differed by 630 times (Table 6).
# Brain. A brain sample weighing 50 mg (± 2 mg) was placed in 2 mL tubes and 10 μL of an aqueous solution of an internal standard with a concentration of 1 μg mL^−1 was added, then 140 μL of a 1% aqueous solution of formic acid was added and homogenized. Brain samples were ground in a Precellys Evolution homogenizer using 2 mL tubes with ceramic balls at room temperature at a speed of 4500 vibrations min^−1 for 2 cycles of 90 s. After that, 400 μL of chloroform was added. The sample was shaken and centrifuged at 10,621 g for 2 min. The aqueous layer of the liquid was taken and 400 μL of chloroform was added. The sample was shaken and centrifuged at 10,621 g for 2 min. The supernatant was taken for analysis.
# Plasma. A total of 10 μL of an aqueous solution of an internal standard with a concentration of 1 mg mL^−1 was added to 50 μL of plasma. A total of10 μL of formic acid and 150 μL of a 0.2% solution of formic acid in methanol was added to the solution. A total of 780 μL of deionized water was added to the resulting solution. The solution was centrifuged at 10,621 g for 2 min. The supernatant was collected and analyzed.
# Analyses were performed by a Shimadzu 20 (Shimadzu, Kyoto, Japan) system consisting of HPLC coupled to triple quadrupole mass spectrometer Shimadzu 8040 (Shimadzu, Japan). The chromatographic separation was performed on Discovery C18 column 3 × 150 mm, 5 μm in a gradient mode with mobile phase components A (0.01M ammonium acetate in water) and B (acetonitrile). The gradient cycle was performed in the following way: 0–6 min 5–40% B, 6.01–10 min 40–95%, 10.01–15 min, isocratic elution with 100% B, and then returned to the initial condition. The column temperature was 60 °C. The sample injection volume was 20 μL. The autosampler temperature was 8 °C.
# The electrospray ionization (ESI) source was set in positive ionization mode. Multiple reaction monitoring was used to perform mass spectrometric quantification. MS conditions: interface voltage 3,500 V ([…]), nebulizer gas (nitrogen) flow 2.5 l min^−1, drying gas (nitrogen) flow 15 L min^−1, CID gas pressure 230 kPa, DL temperature 200 °C, and heat block temperature 500 °C. High-purity argon was used as collision gas. The precursor and product ions (m/z) of target analytes were 327.10 and 174.10 for compound 1 and 236.10 and 154.15 for internal standard; collision energy was −20 V for both compounds.
smiles,measurement,setting,value
"O=C(CN1CC(c2ccccc2)CC1=O)NCCS(=O)(=O)[O-].[K+] (centres unmarked) [Compound 1, potassium 2-[2-(2-oxo-4-phenylpyrrolidin-1-yl)acetamido]ethane-1-sulfonate]",Increase of cell survival rate,"[1]; 50 µM compound 1 after exposure to 50 µM glutamate, MTT, maximum protective effect",37%
same,Neuroprotective effect at higher dose,[1]; 100 μM compound 1,decreases
same,Increase of BBB permeability after MCAO,[2]; 24 h after MCAO vs intact animals,~10 fold
same,Concentration in the brain,[2]; intact animals,0.3 μg g^–1
same,Cplasma/Ccortex,[2]; intact animals,630 and 630.9 ± 98.6
same,Cplasma/Cstriatum,[2]; intact animals,650 and 651.2 ± 52.0
same,concentration at 60 min,"[2]; brain, intravenous, intact animals, read-out: Concentration in the brain",300 ng/g
same,concentration at 60 min,"[2]; brain, intravenous, rats with hemispheric stroke (24 h after MCAO), read-out: Concentration in the brain",2600 ng/g
same,concentration at 60 min,"[2]; cortex, iv, intact animals, 60 min after intravenous administration, read-out: Ccortex",255000 ± 78200 ng/g
same,concentration at 60 min,"[2]; plasma, intravenous, rats 24 h after MCAO, read-out: Cplasma",13800 ± 3600 ng/mL
same,concentration at 60 min,"[2]; plasma, iv, intact animals, 60 min after intravenous administration, read-out: Cplasma",16100 ± 5800 ng/mL
same,concentration at 60 min,"[2]; striatum, iv, intact animals, 60 min after intravenous administration, read-out: Cstriatum",247000 ± 42600 ng/g
same,Cplasma/Ccortex,[2]; rats 24 h after MCAO,37.9 ± 6.0
same,Cplasma/Cstriatum,[2]; rats 24 h after MCAO,89.7 ± 9.4
